Results reported in PubChem BioAssay AID1963841 (Molecular Pharmacology Branch, DTP, NCI, 2024).
pIC50: −log10 of the molar value.

Test system: 439559-082-T-J2-PDC spheroid viability
Test: Anticancer human tumor 439559-082-T-J2-PDC patient-derived colon adenocarcinoma cell line growth inhibition [POLQ]
Conditions: spheroids with HUVEC and MSC; for pIC50: curve of first compound; for viability, T/C: stronger effect = lower value
Method in brief: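 Growth inhibition in 3D: complex spheroids (tumor PDC, HUVEC, MSC) treated with POLQ inhibitor combinations; where Cmax unknown, highest tested concentration 10 microM, except SN-38 at 1 microM.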

[1] = second compound 0.0316 µM, first compound 0.0316 µM
[2] = second compound 0.0316 µM, first compound 0.1 µM
[3] = second compound 0.0316 µM, first compound 0.316 µM
[4] = second compound 0.0316 µM, first compound 1 µM
[5] = second compound 0.1 µM, first compound 0.0316 µM
[6] = second compound 0.1 µM, first compound 0.1 µM
[7] = second compound 0.1 µM, first compound 0.316 µM
[8] = second compound 0.1 µM, first compound 1 µM
[9] = second compound 0.316 µM, first compound 0.0316 µM
[10] = second compound 0.316 µM, first compound 0.1 µM
[11] = second compound 0.316 µM, first compound 0.316 µM
[12] = second compound 0.316 µM, first compound 1 µM
[13] = second compound 1 µM, first compound 0.0316 µM
[14] = second compound 1 µM, first compound 0.1 µM
[15] = second compound 1 µM, first compound 0.316 µM
[16] = second compound 1 µM, first compound 1 µM
[17] = second compound 3.16 µM, first compound 0.0316 µM
[18] = second compound 3.16 µM, first compound 0.1 µM
[19] = second compound 3.16 µM, first compound 0.316 µM
[20] = second compound 3.16 µM, first compound 1 µM
[21] = second compound 10 µM, first compound 0.0316 µM
[22] = second compound 10 µM, first compound 0.1 µM
[23] = second compound 10 µM, first compound 0.316 µM
[24] = second compound 10 µM, first compound 1 µM
[25] = second compound 0.0316 µM, first compound 0.00316 µM
[26] = second compound 0.0316 µM, first compound 0.01 µM
[27] = second compound 0.1 µM, first compound 0.00316 µM
[28] = second compound 0.1 µM, first compound 0.01 µM
[29] = second compound 0.316 µM, first compound 0.00316 µM
[30] = second compound 0.316 µM, first compound 0.01 µM
[31] = second compound 1 µM, first compound 0.00316 µM
[32] = second compound 1 µM, first compound 0.01 µM
[33] = second compound 3.16 µM, first compound 0.00316 µM
[34] = second compound 3.16 µM, first compound 0.01 µM
[35] = second compound 10 µM, first compound 0.00316 µM
[36] = second compound 10 µM, first compound 0.01 µM
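Note: spheroids exposed to compounds for seven days before readout.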
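Throughout, for viability, T/C: 100% = DMSO vehicle control viability.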

`CC1COCCN1c1cc(C2(S(C)(=N)=O)CC2)nc(-c2ccnc3[nH]ccc23)n1` (stereo unspecified) + Nc1ccc(C#CCN(C(=O)Cc2ncc(C(F)(F)F)cc2C(F)(F)F)c2ccc(F)cc2)nn1 showed a pIC50 (second compound 0.0316 µM) of under 5.00, a pIC50 (second compound 0.1 µM) of under 5.00 and a pIC50 (second compound 0.316 µM) of under 5.00. For the same molecule, the pIC50 (second compound 1 µM) was under 5.00, the pIC50 (second compound 3.16 µM) was under 5.00 and the pIC50 (second compound 10 µM) was under 5.00. For the same molecule, the viability, T/C [1] was 98.7%, the viability, T/C [2] was 98.4% and the viability, T/C [3] was 88.9%. It also gave a viability, T/C [4] of 95.8%, a viability, T/C (second compound 0.0316 µM, first compound 3.16 µM) of 89% and a viability, T/C (second compound 0.0316 µM, first compound 10 µM) of 74.7%. For the same molecule, the viability, T/C [5] was 99.4%, the viability, T/C [6] was 91% and the viability, T/C [7] was 96.7%. It also gave a viability, T/C [8] of 79.6%, a viability, T/C (second compound 0.1 µM, first compound 3.16 µM) of 84.1% and a viability, T/C (second compound 0.1 µM, first compound 10 µM) of 71.5%. The viability, T/C [9] was 94.5%, the viability, T/C [10] was 115% and the viability, T/C [11] was 96.3%. For the same molecule, the viability, T/C [12] was 90.8%, the viability, T/C (second compound 0.316 µM, first compound 3.16 µM) was 77% and the viability, T/C (second compound 0.316 µM, first compound 10 µM) was 70.5%. It also gave a viability, T/C [13] of 98.3%, a viability, T/C [14] of 105% and a viability, T/C [15] of 98%. It also gave a viability, T/C [16] of 96.4%, a viability, T/C (second compound 1 µM, first compound 3.16 µM) of 74.8% and a viability, T/C (second compound 1 µM, first compound 10 µM) of 65.3%. The viability, T/C [17] was 94.1%, the viability, T/C [18] was 98.9% and the viability, T/C [19] was 95.3%. The viability, T/C [20] was 76%, the viability, T/C (second compound 3.16 µM, first compound 3.16 µM) was 83.7% and the viability, T/C (second compound 3.16 µM, first compound 10 µM) was 67.5%. The viability, T/C [21] was 99.3%, the viability, T/C [22] was 101% and the viability, T/C [23] was 86.8%. The viability, T/C [24] was 94.7%, the viability, T/C (second compound 10 µM, first compound 3.16 µM) was 84.9% and the viability, T/C (second compound 10 µM, first compound 10 µM) was 72%.
Work on `COc1cccc(OCCCN)c1-c1cc(Nc2cnc(C#N)cn2)n[nH]1` + Nc1ccc(C#CCN(C(=O)Cc2ncc(C(F)(F)F)cc2C(F)(F)F)c2ccc(F)cc2)nn1 yielded a pIC50 (second compound 0.0316 µM) of 6.47, a pIC50 (second compound 0.1 µM) of 6.53 and a pIC50 (second compound 0.316 µM) of 6.49. For the same molecule, the pIC50 (second compound 1 µM) was 6.54, the pIC50 (second compound 3.16 µM) was 6.65 and the pIC50 (second compound 10 µM) was 7.15. For the same molecule, the viability, T/C [25] was 105%, the viability, T/C [26] was 95.1% and the viability, T/C [1] was 82.2%. For the same molecule, the viability, T/C [2] was 68.4%, the viability, T/C [3] was 58.2% and the viability, T/C [4] was 23.1%. The viability, T/C [27] was 104%, the viability, T/C [28] was 99.3% and the viability, T/C [5] was 79.9%. It also gave a viability, T/C [6] of 66.7%, a viability, T/C [7] of 53% and a viability, T/C [8] of 22.8%. It also gave a viability, T/C [29] of 101%, a viability, T/C [30] of 97.6% and a viability, T/C [9] of 85.4%. It also gave a viability, T/C [10] of 69%, a viability, T/C [11] of 51.6% and a viability, T/C [12] of 24.8%. The viability, T/C [31] was 106%, the viability, T/C [32] was 105% and the viability, T/C [13] was 76.8%. It also gave a viability, T/C [14] of 70.6%, a viability, T/C [15] of 50.6% and a viability, T/C [16] of 22.4%. The viability, T/C [33] was 106%, the viability, T/C [34] was 95.6% and the viability, T/C [17] was 83.2%. For the same molecule, the viability, T/C [18] was 67.7%, the viability, T/C [19] was 41.6% and the viability, T/C [20] was 20.4%. The viability, T/C [35] was 107%, the viability, T/C [36] was 96% and the viability, T/C [21] was 69.3%. It also gave a viability, T/C [22] of 42.4%, a viability, T/C [23] of 23.8% and a viability, T/C [24] of 20.7%.
`Cn1ncnc1[C@H]1c2n[nH]c(=O)c3cc(F)cc(c23)N[C@@H]1c1ccc(F)cc1` + Nc1ccc(C#CCN(C(=O)Cc2ncc(C(F)(F)F)cc2C(F)(F)F)c2ccc(F)cc2)nn1 was tested, and the pIC50 (second compound 0.0316 µM) was under 7.00, the pIC50 (second compound 0.1 µM) was under 7.00 and the pIC50 (second compound 0.316 µM) was under 7.00. It also gave a pIC50 (second compound 1 µM) of under 7.00, a pIC50 (second compound 3.16 µM) of under 7.00 and a pIC50 (second compound 10 µM) of under 7.00. It also gave a viability, T/C (second compound 0.0316 µM, first compound 0.000316 µM) of 91.8%, a viability, T/C (second compound 0.0316 µM, first compound 0.001 µM) of 104% and a viability, T/C [25] of 89.9%. The viability, T/C [26] was 103%, the viability, T/C [1] was 101% and the viability, T/C [2] was 91.7%. The viability, T/C (second compound 0.1 µM, first compound 0.000316 µM) was 103%, the viability, T/C (second compound 0.1 µM, first compound 0.001 µM) was 88.9% and the viability, T/C [27] was 86.6%. The viability, T/C [28] was 93.2%, the viability, T/C [5] was 93.1% and the viability, T/C [6] was 89.1%. For the same molecule, the viability, T/C (second compound 0.316 µM, first compound 0.000316 µM) was 99.4%, the viability, T/C (second compound 0.316 µM, first compound 0.001 µM) was 112% and the viability, T/C [29] was 90.2%. For the same molecule, the viability, T/C [30] was 94.6%, the viability, T/C [9] was 99.1% and the viability, T/C [10] was 90%. It also gave a viability, T/C (second compound 1 µM, first compound 0.000316 µM) of 111%, a viability, T/C (second compound 1 µM, first compound 0.001 µM) of 105% and a viability, T/C [31] of 104%. It also gave a viability, T/C [32] of 102%, a viability, T/C [13] of 94.3% and a viability, T/C [14] of 102%. The viability, T/C (second compound 3.16 µM, first compound 0.000316 µM) was 85.2%, the viability, T/C (second compound 3.16 µM, first compound 0.001 µM) was 106% and the viability, T/C [33] was 103%. It also gave a viability, T/C [34] of 96.2%, a viability, T/C [17] of 99.4% and a viability, T/C [18] of 94.2%. For the same molecule, the viability, T/C (second compound 10 µM, first compound 0.000316 µM) was 93.1%, the viability, T/C (second compound 10 µM, first compound 0.001 µM) was 122% and the viability, T/C [35] was 87.8%. The viability, T/C [36] was 85.4%, the viability, T/C [21] was 101% and the viability, T/C [22] was 112%.
